Assay [1] has as its target T1, r-LvMFBP (XP_027209752.1; methyl farnesoate-binding protein, MFBP).
T1 construct: recombinant, E. coli BL21-T1R, HisTALON (His-tag) purified; precursor 215 aa with 16 aa signal peptide, mature 199 aa
The assay is described as follows: isothermal titration calorimetry. Details: species or system Penaeus vannamei. The settings on record: 20 uM protein, 200 uM ligand, 20 mM Tris-HCl pH 7.5, 30 C. A general note: In ITC the heat of successive injections is recorded.

For assay [2] the target is unchanged. Description: isothermal titration calorimetry (also surface plasmon resonance). Details: species or system Penaeus vannamei. The following applies: ITC: 20 uM protein, 200 uM ligand, 20 mM Tris-HCl pH 7.5, 30 C; SPR: immobilized protein, PBST pH 7.4.

pKd: −log10 of the molar value.

For `CC(C)=CCC/C(C)=C/CC/C(C)=C/C(=O)O` [FA, farnesoic acid], the pKd (usually the negative decadic logarithm of the Kd, by convention in mol/L) in assay [1] is 3.20.
With `COC(=O)/C=C(\C)CC/C=C(\C)CCC=C(C)C` [MF, methyl farnesoate], in assay [2], the pKd was 6.18.
As for `COC(C)(C)CCCC(C)C/C=C/C(C)=C/C(=O)OC(C)C` (stereo not drawn) [Met, methoprene], the pKd in assay [1] was 4.46.

The values above are taken from paper PMC12256323, “Crustacean methyl farnesoate–binding protein is an insect juvenile hormone–binding protein homolog that inhibits molting” (The Journal of Biological Chemistry, 2025).
